{
  "source": "paper PMC11129182",
  "about": "“Development of Inhibitors, Probes, and PROTAC Provides a Complete Toolbox to Study PARK7 in the Living Cell” (Journal of Medicinal Chemistry, 2024)",
  "test_system": "other proteins of A549 cells",
  "assay": "TMT-based global proteomic profiling in A549 cells, other proteins",
  "type": "cell-based, Homo sapiens",
  "details": "A549 cells, 5 μM, 8 h",
  "protocol": "A549 cells were seeded into 10 cm plates in 10 mL of media. […] Cells were lysed using a 5% SDS lysis buffer (100 mM Tris-HCl, pH 7.6) and were incubated at 95 °C for 4 min. Protein determination was performed using the Pierce BCA Gold protein assay. 100 μg of protein of each sample was reduced and alkylated, and excess iodoacetamide was quenched using 5 mM TCEP, 15 mM iodoacetamide, and 10 mM DTT, respectively. The protein was pelleted down using chloroform/methanol precipitation, and the resulting pellets were resolubilized in 40 mM HEPES pH 8.4. […] The Pierce BCA Gold protein assay was used to determine the peptide concentration. The peptides were labeled with TMTpro Label Reagents in a 1:4 ratio by mass (peptides/TMT reagents) for 1 h at RT. Five μL of 6% hydroxylamine was added to quench excess TMT reagent and incubated for 15 min at RT. Samples were pooled and lyophilized. The sample was subsequently fractionated on an Agilent 1200 series HPLC system (Agilent Technologies). 75 μg of the pooled sample was dissolved in solvent A (10 mM NH4HCO3, pH 8.4), injected onto, and eluted from an Agilent Eclipse Plus C18 2.1 × 150 mm 3.5 μm column (Agilent Technologies). The gradient was run from 2 to 90% solvent B (10 mM NH4HCO3, pH 8.4 final concentration, 20/80 water/acetonitrile v/v) in 30 min at a flow rate of 200 μL/min. Twelve fractions were made; every 30 s a fraction was collected in a vial, and the eluate of the next 30 s was collected in the next vial and so on until it loops back to the first vial (5 loops of 6 min each). Afterward, the samples were lyophilized.\n2.2.07 (www.matrixscience.com) for protein identification. Mascot searches were with 10 ppm and 0.02 Da deviation for precursor and fragment mass, respectively. Enzyme specificity was set to trypsin. Up to two missed cleavages were allowed. Methionine oxidation and acetyl on protein N-terminus were set as variable modifications. Carbamidomethyl on Cys and TMTpro on Lys and N-terminus were set as fixed modifications. Protein FDR of 1% was set. Normalization was on total peptide amount. The values for each TMT channel were normalized to the average of the values for the DMSO samples for the same peptide, and these values were named FC. The log2 FC values of all replicates for the same master protein were averaged to give the “Average log2 FC”. A one-sample t test was performed against the null hypothesis of log2 FC = 0, and the resulting −log10p values were reported for each protein. The volcano plot was plotted using GraphPad Prism v.9.01.",
  "data": [
    {"compound": "N#CN1CC[C@@H](C(=O)Nc2nc3c(s2)CN(C(=O)c2cc(-n4ccnn4)ccc2F)CC3)C1", "note": "[Compound 84, (R)-1-Cyano-N-(5-(2-fluoro-5-(1H-1,2,3-triazol-1-yl)benzoyl)-4,5,6,7-tetrahydrothiazolo[5,4-c]pyridin-2-yl)pyrrolidine-3-carboxamide]", "values": [
      {"measurement": "DOP1B protein level (total proteome profiling)", "value": "downregulated"}
    ]}
  ]
}
